Measurements: patent US8952054B2, “Small molecule inhibitors of MUC1 and methods of identifying the same” (Dana-Farber Cancer Institute, Inc., priority 2010, dated 2015)

What was measured:
MCF-10A cells = assay: MCF-10A cell number (MTS), caspase-9 cleavage and PI uptake; assay type: cell-based, human; conditions: 3 d
Protocol: FIGS. 13A-D—Apigenin downregulates MUC1 and confers death of MCF-10A cells. (FIG. 13A) MCF-10A cells were treated with the indicated concentrations of apigenin and baicalein for 3 d, washed and then treated for an additional 3 d. Lysates were immunoblotted with the indicated antibodies. (FIG. 13B) MCF-10A cells were treated with the indicated concentrations apigenin (circles) and baicalein (squares) for 3 d. Viable cell number was determined by the MTS assay. The results (mean+SD of 3 determinations) are expressed as percentage of control growth in the presence of DMSO. (FIG. 13C) MCF-10A cells were treated with DMSO, 75 μM apigenin or 75 μM baicalein for 3 d. Lysates were subjected to immunoblotting with the indicated antibodies. (FIG. 13D) MCF-10A cells were treated with DMSO, 75 μM apigenin or 75 μM baicalein for 3 d, stained with propidium iodide and analyzed by flow cytometry.

His-MUC1-CD = biological target: T1, His-MUC1-CD (Homo sapiens, UniProt P15941); assay: BIAcore binding of peptides to immobilized His-MUC1-CD
T1 construct: made in house
T1 sequence (P15941 1184-1255): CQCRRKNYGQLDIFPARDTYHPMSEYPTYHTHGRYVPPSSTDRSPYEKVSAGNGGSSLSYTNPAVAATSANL
Protocol: FIGS. 1A-D. MUC1/CQC peptide blocks MUC1 oligomerization. (FIG. 1A) Schematic representation of the MUC1-C subunit and the 72-amino acid sequence of MUC1-CD (SEQ ID NO: 1) are shown. The N-terminal 15 amino acids (shaded sequence) MUC1/CQC (SEQ ID NO: 10) and mutated MUC1/AQA (SEQ ID NO: 11) peptides were synthesized with the poly-dArg transduction domain. (FIG. 1B) His-MUC1-CD (1.4 mg/ml) was immobilized on a sensor chip in a BIAcore. MUC1/CQC was injected over the chip at 10 μM. Raw binding data were analyzed by BIAevaluation software version 3.0 and fit to a 1:1 Languir binding model. (FIG. 1C) Purified His-MUC1-CD (1.5 mg/ml) was incubated with PBS, 200 μM MUC1/CQC or 200 μM MUC1/AQA for 1 h at room temperature. The proteins were separated in a non-reducing SDS-polyacrylamide gel and analyzed by immunoblotting with anti-MUC1-C. (FIG. 1D) 293 cells were transiently transfected to express an empty vector or GFP-MUC1-CD and Flag-MUC1-CD. At 48 h after transfection, the cells were treated with 5 μM MUC1/CQC or MUC1/AQA for 3 d. The cells were then harvested for immunoblotting with anti-MUC1-C (left panel). […]
The MUC1 cytoplasmic domain (MUC1-CD) contains a CQC motif that is necessary for the formation of oligomers and nuclear localization (Leng et al., 2007). […] Purified His-tagged MUC1-CD forms oligomers as detected by electrophoresis in polyacrylamide gels (FIG. 1C). […]

| Compound | caspase-9 cleavage (MCF-10A cells; 75 μM) | cell number (MTS) (MCF-10A cells) | cell membrane integrity (PI uptake) (MCF-10A cells; 75 μM) | Kd (His-MUC1-CD; His-tagged MUC1-CD immobilized on BIAcore sensor chip, peptide injected at 10 μM, 1:1 binding model, read-out: dissociation constant (Kd)) [µM] | binding to His-MUC1-CD (His-MUC1-CD; BIAcore, data not shown) |
| --- | --- | --- | --- | --- | --- |
| O=c1cc(-c2ccccc2)oc2cc(O)c(O)c(O)c12 [Baicalein, 5,6,7-trihydroxyflavone, reference compound] | not | substantially less effective |  |  |  |
| O=c1cc(-c2ccc(O)cc2)oc2cc(O)cc(O)c12 [Apigenin, 4′,5,7-trihydroxyflavone] | caspase-9 cleavage | decreased MCF-10A cell number | loss of cell membrane integrity |  |  |
| CC[C@H](C)[C@H](NC(=O)[C@H](CC(=O)O)NC(=O)[C@H](CC(C)C)NC(=O)[C@H](CCC(N)=O)NC(=O)CNC(=O)[C@H](Cc1ccc(O)cc1)NC(=O)[C@H](CC(N)=O)NC(=O)[C@H](CCCCN)NC(=O)[C@H](CCCNC(=N)N)NC(=O)[C@H](CCCNC(=N)N)NC(=O)[C@H](CS)NC(=O)[C@H](CCC(N)=O)NC(=O)[C@H](CS)NC(=O)[C@@H](CCCNC(=N)N)NC(=O)[C@@H](CCCNC(=N)N)NC(=O)[C@@H](CCCNC(=N)N)NC(=O)[C@@H](CCCNC(=N)N)NC(=O)[C@@H](CCCNC(=N)N)NC(=O)[C@@H](CCCNC(=N)N)NC(=O)[C@@H](CCCNC(=N)N)NC(=O)[C@@H](CCCNC(=N)N)NC(=O)[C@H](N)CCCNC(=N)N)C(=O)N[C@@H](Cc1ccccc1)C(=O)N1CCC[C@H]1C(=O)O [MUC1/CQC] |  |  |  | 0.03 |  |
| MUC1/AQA: control peptide in which the CQC motif was altered to AQA (SEQ ID NO: 11) (AQARRKNYGQLDIFP) [reference compound] |  |  |  |  | no apparent binding |
